From patent publication US20150111262A1, “METHODS AND MATERIALS FOR PRODUCING FIVE CARBON BUILDING BLOCKS FROM PROLINE” (INVISTA North America S.á r.l., priority 2013, published 2015)

Key:
gene product of ygjG = gene product of ygjG (Escherichia coli, UniProt P42588); conditions: Samsonova et al., BMC Microbiology, 2003; cited from earlier work
[1] = system: ω-transaminase of SEQ ID NO: 7; assay: ω-transaminase activity, cadaverine to 5-aminopentanal; assay type: biochemical, Chromobacterium violaceum
Procedure: (§1) A sequence encoding an N-terminal His-tag was added to the Chromobacterium violaceum, Pseudomonas aeruginosa, Pseudomonas syringae and Escherichia coli genes encoding the ω-transaminases of SEQ ID NOs: 7, 8, 9 and 11, respectively (see FIG. 7) such that N-terminal HIS tagged ω-transaminases could be produced. The modified genes were cloned into a pET21a expression vector under the T7 promoter. Each expression vector was transformed into a BL21[DE3] E. coli host. Each resulting recombinant E. coli strain were cultivated at 37° C. in a 250 mL shake flask culture containing 50 mL LB media and antibiotic selection pressure, with shaking at 230 rpm. Each culture was induced overnight at 16° C. using 1 mM IPTG.
(§2) The pellet from each induced shake flask culture was harvested via centrifugation. Each pellet was resuspended and lysed via sonication. The cell debris was separated from the supernatant via centrifugation and the cell free extract was used immediately in enzyme activity assays.
(§3) Enzyme activity assays in the reverse direction (i.e., cadaverine to 5-aminopentanal) were performed in a buffer composed of a final concentration of 50 mM HEPES buffer (pH=7.5), 10 mM cadaverine, 10 mM pyruvate, and 100 μM pyridoxyl 5′ phosphate. […] The formation of L-alanine was quantified via RP-HPLC.

[2] = system: ω-transaminase of SEQ ID NO: 9; assay: as above; assay type: biochemical, Pseudomonas syringae
Procedure: as §1, §2, §3

[3] = target: T1, ω-transaminase of SEQ ID NO: 11 (Escherichia coli, UniProt P42588); assay: as above; assay type: biochemical
T1 construct: His-tag (N); made in house; host or cells: E. coli BL21[DE3], pET21a; cell free extract used
T1 sequence (P42588 whole entry): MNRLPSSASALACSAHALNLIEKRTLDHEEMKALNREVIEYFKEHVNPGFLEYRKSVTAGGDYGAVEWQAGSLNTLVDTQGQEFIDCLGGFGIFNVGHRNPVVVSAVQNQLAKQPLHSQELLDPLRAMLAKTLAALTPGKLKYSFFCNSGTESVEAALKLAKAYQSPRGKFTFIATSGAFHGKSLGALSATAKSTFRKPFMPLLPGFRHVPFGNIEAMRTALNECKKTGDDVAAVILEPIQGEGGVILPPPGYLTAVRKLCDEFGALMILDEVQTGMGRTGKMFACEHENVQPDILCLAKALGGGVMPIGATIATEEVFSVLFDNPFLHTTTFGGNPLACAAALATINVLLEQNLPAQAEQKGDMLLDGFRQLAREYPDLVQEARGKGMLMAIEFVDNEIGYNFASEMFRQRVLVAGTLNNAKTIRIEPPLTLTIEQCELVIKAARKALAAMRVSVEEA
Procedure: as §1, §2, §3

[4] = system: ω-transaminase of SEQ ID NO: 8; assay: as above; assay type: biochemical, Pseudomonas aeruginosa
Procedure: as §1, §2, §3

[5] = system: ω-transaminase of SEQ ID NO: 9; assay: ω-transaminase activity, 5-aminopentanol to 5-oxopentanol; assay type: biochemical, Pseudomonas syringae
Procedure: (§4) A nucleotide sequence encoding an N-terminal His-tag was added to the Chromobacterium violaceum, Pseudomonas aeruginosa, Pseudomonas syringae, Rhodobacter sphaeroides, Escherichia coli and Vibrio Fluvialis genes encoding the ω-transaminases of SEQ ID NOs: 7-12 respectively (see FIG. 7) such that N-terminal HIS tagged ω-transaminases could be produced. The modified genes were cloned into a pET21a expression vector under the T7 promoter. Each expression vector was transformed into a BL21[DE3] E. coli host. Each resulting recombinant E. coli strain were cultivated at 37° C. in a 250 mL shake flask culture containing 50 mL LB media and antibiotic selection pressure, with shaking at 230 rpm. Each culture was induced overnight at 16° C. using 1 mM IPTG.
as §2
as §3, with “5-aminopentanol” for “cadaverine”, “5-oxopentanol)” for “5-aminopentanal)”, “5-aminopentanol,” for “cadaverine,”

[6] = system: ω-transaminase of SEQ ID NO: 10; assay: as above; assay type: biochemical, Rhodobacter sphaeroides
Procedure: as §4, §2
as §3, with “5-aminopentanol” for “cadaverine”, “5-oxopentanol)” for “5-aminopentanal)”, “5-aminopentanol,” for “cadaverine,”

[7] = system: ω-transaminase of SEQ ID NO: 8; assay: as above; assay type: biochemical, Pseudomonas aeruginosa
Procedure: as §4, §2
as §3, with “5-aminopentanol” for “cadaverine”, “5-oxopentanol)” for “5-aminopentanal)”, “5-aminopentanol,” for “cadaverine,”

[8] = system: ω-transaminase of SEQ ID NO: 12; assay: as above; assay type: biochemical, Vibrio Fluvialis
Procedure: as §4, §2
as §3, with “5-aminopentanol” for “cadaverine”, “5-oxopentanol)” for “5-aminopentanal)”, “5-aminopentanol,” for “cadaverine,”

[9] = system: ω-transaminase of SEQ ID NO: 7; assay: as above; assay type: biochemical, Chromobacterium violaceum
Procedure: as §4, §2
as §3, with “5-aminopentanol” for “cadaverine”, “5-oxopentanol)” for “5-aminopentanal)”, “5-aminopentanol,” for “cadaverine,”

[10] = target: T1, ω-transaminase of SEQ ID NO: 11; assay: as above; assay type: biochemical
Procedure: as §4, §2
as §3, with “5-aminopentanol” for “cadaverine”, “5-oxopentanol)” for “5-aminopentanal)”, “5-aminopentanol,” for “cadaverine,”

[11] = system: ω-transaminase of SEQ ID NO: 9; assay: ω-transaminase activity, glutarate semialdehyde to 5-aminopentanoate (reverse direction); assay type: biochemical, Pseudomonas syringae; conditions: SEQ ID 9
Procedure: (§5) A sequence encoding an N-terminal His-tag was added to the genes from Chromobacterium violaceum and Pseudomonas syringae encoding the ω-transaminases of SEQ ID NOs: 7 and 9, respectively (see FIG. 7) such that N-terminal HIS tagged ω-transaminases could be produced. Each of the resulting modified genes was cloned into a pET21a expression vector under control of the T7 promoter and each expression vector was transformed into a BL21[DE3] E. coli host. The resulting recombinant E. coli strains were cultivated at 37° C. in a 250 mL shake flask culture containing 50 mL LB media and antibiotic selection pressure, with shaking at 230 rpm. Each culture was induced overnight at 16° C. using 1 mM IPTG.
as §2
Enzyme activity in the reverse direction (i.e., glutarate semialdehyde to 5-aminopentanoate) were performed in a buffer composed of a final concentration of 50 mM HEPES buffer (pH=7.5), 10 mM glutarate semialdehyde, 10 mM L-alanine and 100 μM pyridoxyl 5′ phosphate. […] The formation of pyruvate was quantified via RP-HPLC.

[12] = system: ω-transaminase of SEQ ID NO: 7; assay: ω-transaminase activity, 5-aminopentanoate to glutarate semialdehyde (forward direction); assay type: biochemical, Chromobacterium violaceum
Procedure: as §5, §2
Enzyme activity assays in the forward direction (i.e., 5-aminopentanoate to glutarate semialdehyde) were performed in a buffer composed of a final concentration of 50 mM HEPES buffer (pH=7.5), 10 mM 5-aminopentanoate, 10 mM pyruvate and 100 μM pyridoxyl 5′ phosphate. […] The formation of L-alanine from pyruvate was quantified via RP-HPLC.

gene product of ygjG, sequence (P42588 whole entry): as above

## NCCCCNCCCN [spermidine]
Gene product of ygjG
  acceptance as diamine substrate: accepts

## NCCCCC=O [5-aminopentanal]
[1]; SEQ ID 7
  acceptance as substrate, forming cadaverine, concluded from reversibility of the ω-transaminase activity: accept 5-aminopentanal as substrate
[2]; SEQ ID 9
  acceptance as substrate, forming cadaverine, concluded from reversibility of the ω-transaminase activity: accept 5-aminopentanal as substrate
[3]; SEQ ID 11
  acceptance as substrate, forming cadaverine, concluded from reversibility of the ω-transaminase activity: accept 5-aminopentanal as substrate
[4]; SEQ ID 8
  acceptance as substrate, forming cadaverine, concluded from reversibility of the ω-transaminase activity: accept 5-aminopentanal as substrate

## NCCCCN [putrescine]
Gene product of ygjG
  acceptance as diamine substrate: accepts

## NCCCCCO [5-aminopentanol]
[5]; SEQ ID NO 9, 10 mM 5-aminopentanol, 10 mM pyruvate, pH 7.5, 25° C., 4 h, FIG. 13
  acceptance as substrate (conversion of pyruvate to L-alanine) vs empty vector control: accepted 5-aminopentanol as substrate
[6]; SEQ ID NO 10, 10 mM 5-aminopentanol, 10 mM pyruvate, pH 7.5, 25° C., 4 h, FIG. 13
  acceptance as substrate (conversion of pyruvate to L-alanine) vs empty vector control: accepted 5-aminopentanol as substrate
[7]; SEQ ID NO 8, 10 mM 5-aminopentanol, 10 mM pyruvate, pH 7.5, 25° C., 4 h, FIG. 13
  acceptance as substrate (conversion of pyruvate to L-alanine) vs empty vector control: accepted 5-aminopentanol as substrate
[8]; SEQ ID NO 12, 10 mM 5-aminopentanol, 10 mM pyruvate, pH 7.5, 25° C., 4 h, FIG. 13
  acceptance as substrate (conversion of pyruvate to L-alanine) vs empty vector control: accepted 5-aminopentanol as substrate
[9]; SEQ ID NO 7, 10 mM 5-aminopentanol, 10 mM pyruvate, pH 7.5, 25° C., 4 h, FIG. 13
  acceptance as substrate (conversion of pyruvate to L-alanine) vs empty vector control: accepted 5-aminopentanol as substrate
[10]; SEQ ID NO 11, 10 mM 5-aminopentanol, 10 mM pyruvate, pH 7.5, 25° C., 4 h, FIG. 13
  acceptance as substrate (conversion of pyruvate to L-alanine) vs empty vector control: accepted 5-aminopentanol as substrate

## O=CCCCCO [5-oxopentanol]
[5]; SEQ ID 9
  acceptance as substrate, forming 5-aminopentanol, concluded from reversibility of the ω-transaminase activity: accept 5-oxopentanol as substrate
[6]; SEQ ID 10
  acceptance as substrate, forming 5-aminopentanol, concluded from reversibility of the ω-transaminase activity: accept 5-oxopentanol as substrate
[7]; SEQ ID 8
  acceptance as substrate, forming 5-aminopentanol, concluded from reversibility of the ω-transaminase activity: accept 5-oxopentanol as substrate
[8]; SEQ ID 12
  acceptance as substrate, forming 5-aminopentanol, concluded from reversibility of the ω-transaminase activity: accept 5-oxopentanol as substrate
[9]; SEQ ID 7
  acceptance as substrate, forming 5-aminopentanol, concluded from reversibility of the ω-transaminase activity: accept 5-oxopentanol as substrate
[10]; SEQ ID 11
  acceptance as substrate, forming 5-aminopentanol, concluded from reversibility of the ω-transaminase activity: accept 5-oxopentanol as substrate

## NCCCCC(=O)O [5-aminopentanoate]
[11]
  acceptance as substrate, forming 5-oxopentanoate, concluded from reversibility of the ω-transaminase activity: accept 5-aminopentanoate as substrate
[12]; SEQ ID 7
  acceptance as substrate, forming 5-oxopentanoate, concluded from reversibility of the ω-transaminase activity: accept 5-aminopentanoate as substrate
[12]; cell free extract, 10 mM 5-aminopentanoate, 10 mM pyruvate, pH 7.5, 25° C., 4 h, RP-HPLC, FIG. 8
  acceptance as substrate (conversion of pyruvate to L-alanine) vs empty vector control: accepted 5-aminopentanoate as substrate

## NCCCCCN [cadaverine]
[1]; SEQ ID NO 7, 10 mM cadaverine, 10 mM pyruvate, pH 7.5, 25° C., 4 h, FIG. 14
  acceptance as substrate (conversion of pyruvate to L-alanine) vs empty vector control: accepted cadaverine as substrate
[2]; SEQ ID NO 9, 10 mM cadaverine, 10 mM pyruvate, pH 7.5, 25° C., 4 h, FIG. 14
  acceptance as substrate (conversion of pyruvate to L-alanine) vs empty vector control: accepted cadaverine as substrate
[3]; SEQ ID NO 11, 10 mM cadaverine, 10 mM pyruvate, pH 7.5, 25° C., 4 h, FIG. 14
  acceptance as substrate (conversion of pyruvate to L-alanine) vs empty vector control: accepted cadaverine as substrate
Gene product of ygjG
  acceptance as diamine substrate: accepts
[4]; SEQ ID NO 8, 10 mM cadaverine, 10 mM pyruvate, pH 7.5, 25° C., 4 h, FIG. 14
  acceptance as substrate (conversion of pyruvate to L-alanine) vs empty vector control: accepted cadaverine as substrate
